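Briefly, cells in 96-well plates were exposed to five compound concentrations for 48 h, and endpoints were estimated by linear interpolation. GI50 is the concentration that inhibits growth by half.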 The source made the active and inactive calls. Rule as the data show it: active = GI50 up to about 1.1 µM and inactive = higher.
Experiments:
Experiment in all cases: NCI-60 cell line screen, 48 h
HCC 2998 = system: HCC 2998
HOP-92 = system: HOP-92
MDA-MB-435 = system: MDA-MB-435
LOX IMVI = system: LOX IMVI
MDA-N = system: MDA-N
PC-3 = system: PC-3
Hs-578T = system: Hs-578T
HCT-15 = system: HCT-15
OVCAR-4 = system: OVCAR-4
U-251 = system: U-251
TK-10 = system: TK-10
OVCAR-3 = system: OVCAR-3
EKVX = system: EKVX
HOP-62 = system: HOP-62
SNB-75 = system: SNB-75
HT-29 = system: HT-29
NCI-H226 = system: NCI-H226
ACHN = system: ACHN
K562 = system: K562
SK-OV-3 = system: SK-OV-3

SMILES	GI50 (HCC 2998)	GI50 (HOP-92)	GI50 (MDA-MB-435)	GI50 (LOX IMVI)	GI50 (MDA-N)	GI50 (PC-3)	GI50 (Hs-578T)	GI50 (HCT-15) [µM]	GI50 (OVCAR-4)	GI50 (U-251)	GI50 (TK-10)	GI50 (OVCAR-3)	GI50 (EKVX)	GI50 (HOP-62)	GI50 (SNB-75)	GI50 (HT-29)	GI50 (NCI-H226)	GI50 (ACHN)	GI50 (K562)	GI50 (SK-OV-3)
NCc1ccccc1.O=C(O)NCc1ccccc1	22.5 µM (inactive)	19.6 µM (inactive)	31.5 µM (inactive)	30.3 µM (inactive)	29.5 µM (inactive)	20.8 µM (inactive)	26.1 µM (inactive)	30.8	25.1 µM (inactive)	26.9 µM (inactive)	31.4 µM (inactive)	31.4 µM (inactive)	30.6 µM (inactive)	38 µM (inactive)	27.4 µM (inactive)	27.7 µM (inactive)	30.1 µM (inactive)	35.9 µM (inactive)	24.3 µM (inactive)	37.5 µM (inactive)
CCN(CC)CCNc1nc(N)c(C#N)c(C#N)c1C#N	> 10 µM (inactive)	> 10 µM (inactive)	> 10 µM (inactive)	> 10 µM (inactive)	> 10 µM (inactive)	> 10 µM (inactive)	> 10 µM (inactive)	> 10	> 10 µM (inactive)	> 10 µM (inactive)	> 10 µM (inactive)	> 10 µM (inactive)	> 10 µM (inactive)	> 10 µM (inactive)	> 10 µM (inactive)	> 10 µM (inactive)	> 10 µM (inactive)	> 10 µM (inactive)	> 10 µM (inactive)	> 10 µM (inactive)
O=C1OC2C(O)COC2(O)C1(O)C(C[N+](=O)[O-])c1ccc(Cl)cc1 (stereo not given)	6.78 µM (inactive)	28.7 µM (inactive)	1.97 µM (inactive)	2.69 µM (inactive)	2.76 µM (inactive)	17 µM (inactive)	13.4 µM (inactive)	6.84	8.45 µM (inactive)	9.29 µM (inactive)	12.5 µM (inactive)	7.19 µM (inactive)	23.6 µM (inactive)	20.6 µM (inactive)	9.35 µM (inactive)	1.99 µM (inactive)	11.6 µM (inactive)	12.4 µM (inactive)	2.96 µM (inactive)	17.1 µM (inactive)
Cc1cc(/N=C/c2ccc(Cl)cc2)n(-c2ccccc2)n1	24.9 µM (inactive)	48 µM (inactive)	31.1 µM (inactive)	54.2 µM (inactive)	32.2 µM (inactive)	53.8 µM (inactive)	58.7 µM (inactive)	19	33.4 µM (inactive)	> 100 µM (inactive)	40.3 µM (inactive)	22.8 µM (inactive)	33 µM (inactive)	36 µM (inactive)	32.4 µM (inactive)	23.4 µM (inactive)	43.6 µM (inactive)	47.2 µM (inactive)	12.9 µM (inactive)	67.9 µM (inactive)
C=C1C(=O)O[C@@H]2C[C@@]3(C)CCC[C@H](C)C3=C[C@H]12 [HELENINE]	15.7 µM (inactive)	2.43 µM (inactive)	5.08 µM (inactive)	10.5 µM (inactive)	4.66 µM (inactive)	11.6 µM (inactive)	4.99 µM (inactive)	4.3	4.49 µM (inactive)	9.86 µM (inactive)	2.77 µM (inactive)	6.89 µM (inactive)	15 µM (inactive)	12.3 µM (inactive)	3.46 µM (inactive)	4.29 µM (inactive)	15.7 µM (inactive)	10 µM (inactive)	3.02 µM (inactive)	22 µM (inactive)

From ChEMBL document CHEMBL1201862, “PubChem BioAssay data set” (2004)
